Laboratory results from ChEMBL document CHEMBL1155514, “Analysis of kinase inhibitor selectivity using a thermodynamics-based partition index” (J Med Chem, 2010).

Legend:
Aurora kinase B [1] = biological target: T1, Aurora kinase B (Homo sapiens, UniProt Q96GD4); experiment: Inhibition of Aurora B
Aurora kinase A = biological target: T2, Aurora kinase A (Homo sapiens, UniProt O14965); experiment: Inhibition of Aurora A
T2 sequence (O14965 whole entry): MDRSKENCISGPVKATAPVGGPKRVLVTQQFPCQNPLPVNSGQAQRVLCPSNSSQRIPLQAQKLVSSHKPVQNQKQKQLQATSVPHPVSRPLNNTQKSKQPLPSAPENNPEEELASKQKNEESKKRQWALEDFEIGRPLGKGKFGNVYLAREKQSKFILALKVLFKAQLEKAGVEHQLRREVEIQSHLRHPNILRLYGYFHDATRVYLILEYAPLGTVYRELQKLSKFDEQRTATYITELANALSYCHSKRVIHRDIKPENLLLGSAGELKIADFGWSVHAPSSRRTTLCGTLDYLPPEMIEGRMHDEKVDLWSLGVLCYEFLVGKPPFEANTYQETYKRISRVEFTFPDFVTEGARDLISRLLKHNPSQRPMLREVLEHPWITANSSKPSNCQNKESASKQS

[2] = biological target: T3, Vascular endothelial growth factor receptor 2 (Homo sapiens, UniProt P35968); experiment: Inhibition of KDR
[3] = biological target: Tyrosine-protein kinase Lck (Homo sapiens, UniProt P06239); experiment: Inhibition of LCK
Angiopoietin-1 receptor [4] = biological target: T4, Angiopoietin-1 receptor (Homo sapiens, UniProt Q02763); experiment: Inhibition of Tie2
[5] = Selectivity ratio of IC50 for Aurora B to IC50 for Tie2
[6] = Selectivity ratio of IC50 for Aurora A to IC50 for Tie2
[7] = Selectivity ratio of IC50 for LCK to IC50 for Tie2
[8] = biological target: T3, Vascular endothelial growth factor receptor 2; experiment: Inhibition of KDR at 1 uM relative to control; values are per cent of control
Angiopoietin-1 receptor [9] = biological target: T4, Angiopoietin-1 receptor; experiment: Inhibition of Tie2 at 1 uM relative to control; values are per cent of control
[10] = biological target: T5, Aurora kinase A (Homo sapiens) (UniProt O14965); experiment: Inhibition of Aurora A at 1 uM relative to control; values are per cent of control
T5 sequence (whole entry): T2 sequence (O14965 whole entry)

Aurora kinase B [11] = biological target: T1, Aurora kinase B; experiment: Inhibition of Aurora B at 1 uM relative to control; values are per cent of control
[12] = Selectivity ratio of IC50 for KDR to IC50 for Tie2

T4 sequence (Q02763 whole entry): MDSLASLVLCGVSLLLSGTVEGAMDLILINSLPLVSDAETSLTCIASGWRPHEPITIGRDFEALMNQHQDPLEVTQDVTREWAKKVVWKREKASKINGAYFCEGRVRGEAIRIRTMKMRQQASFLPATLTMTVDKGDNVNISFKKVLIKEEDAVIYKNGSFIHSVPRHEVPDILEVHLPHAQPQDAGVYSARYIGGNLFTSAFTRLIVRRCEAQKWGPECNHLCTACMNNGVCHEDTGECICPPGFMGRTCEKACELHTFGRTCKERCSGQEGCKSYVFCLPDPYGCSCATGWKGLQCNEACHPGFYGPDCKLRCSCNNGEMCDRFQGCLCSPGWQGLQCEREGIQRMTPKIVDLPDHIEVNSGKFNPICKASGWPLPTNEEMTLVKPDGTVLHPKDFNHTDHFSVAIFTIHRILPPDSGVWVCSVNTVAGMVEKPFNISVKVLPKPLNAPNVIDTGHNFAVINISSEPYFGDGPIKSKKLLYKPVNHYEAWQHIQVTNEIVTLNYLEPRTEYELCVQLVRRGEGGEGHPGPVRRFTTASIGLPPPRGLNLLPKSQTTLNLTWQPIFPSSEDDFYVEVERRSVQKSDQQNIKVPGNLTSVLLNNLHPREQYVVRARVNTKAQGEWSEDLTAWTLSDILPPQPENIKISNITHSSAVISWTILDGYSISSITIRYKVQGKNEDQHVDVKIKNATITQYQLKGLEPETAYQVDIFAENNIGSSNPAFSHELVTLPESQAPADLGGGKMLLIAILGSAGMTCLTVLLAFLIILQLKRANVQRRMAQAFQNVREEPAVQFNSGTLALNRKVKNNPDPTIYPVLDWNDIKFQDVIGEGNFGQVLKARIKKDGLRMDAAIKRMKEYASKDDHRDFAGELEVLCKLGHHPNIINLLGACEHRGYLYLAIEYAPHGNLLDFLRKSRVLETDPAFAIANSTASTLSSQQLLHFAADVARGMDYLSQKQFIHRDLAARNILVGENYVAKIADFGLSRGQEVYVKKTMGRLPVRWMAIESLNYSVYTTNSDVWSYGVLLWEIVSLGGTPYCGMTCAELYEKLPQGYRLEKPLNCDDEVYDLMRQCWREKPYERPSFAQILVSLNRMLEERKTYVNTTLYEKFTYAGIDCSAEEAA
T1 sequence (Q96GD4 whole entry): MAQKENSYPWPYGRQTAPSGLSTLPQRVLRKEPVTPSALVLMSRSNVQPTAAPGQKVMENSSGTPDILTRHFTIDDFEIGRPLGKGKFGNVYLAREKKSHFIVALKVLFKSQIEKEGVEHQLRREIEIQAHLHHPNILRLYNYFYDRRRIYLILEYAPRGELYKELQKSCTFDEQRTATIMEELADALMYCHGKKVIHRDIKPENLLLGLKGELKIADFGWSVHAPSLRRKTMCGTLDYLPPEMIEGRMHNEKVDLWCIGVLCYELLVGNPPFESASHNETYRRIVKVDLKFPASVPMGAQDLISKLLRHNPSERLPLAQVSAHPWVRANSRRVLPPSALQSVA
T3 sequence (P35968 whole entry): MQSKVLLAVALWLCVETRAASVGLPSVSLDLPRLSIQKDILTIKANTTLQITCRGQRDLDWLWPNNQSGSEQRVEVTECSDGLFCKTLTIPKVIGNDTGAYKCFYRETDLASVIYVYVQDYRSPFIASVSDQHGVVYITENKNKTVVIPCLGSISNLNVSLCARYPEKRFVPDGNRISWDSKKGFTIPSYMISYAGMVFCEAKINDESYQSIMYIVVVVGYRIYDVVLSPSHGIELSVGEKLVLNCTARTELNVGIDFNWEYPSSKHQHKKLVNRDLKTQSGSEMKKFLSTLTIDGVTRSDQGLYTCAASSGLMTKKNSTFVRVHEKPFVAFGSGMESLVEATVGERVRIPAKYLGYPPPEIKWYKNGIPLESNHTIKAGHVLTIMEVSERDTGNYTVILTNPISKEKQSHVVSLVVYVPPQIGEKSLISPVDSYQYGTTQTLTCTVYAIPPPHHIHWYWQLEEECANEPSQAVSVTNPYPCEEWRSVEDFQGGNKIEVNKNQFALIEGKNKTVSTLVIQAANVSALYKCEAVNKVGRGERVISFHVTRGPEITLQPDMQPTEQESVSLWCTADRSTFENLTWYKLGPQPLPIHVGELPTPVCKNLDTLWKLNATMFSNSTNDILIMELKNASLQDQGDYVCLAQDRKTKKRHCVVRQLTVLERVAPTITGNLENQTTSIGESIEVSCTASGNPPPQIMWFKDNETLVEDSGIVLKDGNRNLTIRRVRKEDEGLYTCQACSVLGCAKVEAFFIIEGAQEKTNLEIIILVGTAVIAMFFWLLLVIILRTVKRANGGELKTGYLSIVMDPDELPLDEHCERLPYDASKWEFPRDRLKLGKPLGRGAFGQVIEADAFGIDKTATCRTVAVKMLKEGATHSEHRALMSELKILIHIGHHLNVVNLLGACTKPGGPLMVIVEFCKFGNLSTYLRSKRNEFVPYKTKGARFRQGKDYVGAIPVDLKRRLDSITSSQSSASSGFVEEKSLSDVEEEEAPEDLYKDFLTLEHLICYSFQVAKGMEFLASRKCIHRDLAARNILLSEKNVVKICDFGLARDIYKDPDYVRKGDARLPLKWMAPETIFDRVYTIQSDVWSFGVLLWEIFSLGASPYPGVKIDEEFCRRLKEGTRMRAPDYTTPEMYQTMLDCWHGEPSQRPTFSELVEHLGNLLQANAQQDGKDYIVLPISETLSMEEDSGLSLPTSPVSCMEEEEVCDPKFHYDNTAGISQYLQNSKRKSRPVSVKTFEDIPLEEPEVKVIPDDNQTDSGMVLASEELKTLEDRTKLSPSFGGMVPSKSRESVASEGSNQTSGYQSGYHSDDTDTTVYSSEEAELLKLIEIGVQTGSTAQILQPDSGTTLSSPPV
Chain of Tyrosine-protein kinase Lck (P06239 whole entry): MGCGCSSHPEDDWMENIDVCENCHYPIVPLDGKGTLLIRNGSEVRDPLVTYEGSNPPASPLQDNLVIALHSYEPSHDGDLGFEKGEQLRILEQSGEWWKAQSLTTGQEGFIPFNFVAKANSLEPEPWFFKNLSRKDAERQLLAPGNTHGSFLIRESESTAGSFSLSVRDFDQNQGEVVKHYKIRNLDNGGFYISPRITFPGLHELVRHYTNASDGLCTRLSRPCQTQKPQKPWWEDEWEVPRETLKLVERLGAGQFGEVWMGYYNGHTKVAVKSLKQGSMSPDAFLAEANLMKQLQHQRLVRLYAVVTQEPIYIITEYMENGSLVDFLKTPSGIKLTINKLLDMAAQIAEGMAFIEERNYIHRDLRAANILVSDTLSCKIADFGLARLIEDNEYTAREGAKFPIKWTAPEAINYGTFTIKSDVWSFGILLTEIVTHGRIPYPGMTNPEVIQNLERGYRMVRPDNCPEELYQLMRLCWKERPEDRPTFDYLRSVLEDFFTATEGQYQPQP

Which results are given for `CN1CCCC1CCNc1nccc(-c2cccnc2Oc2ccc(Nc3nc4ccccc4[nH]3)c3ccccc23)n1` (stereo unspecified)?
IC50 (Aurora kinase B [1]): 47 nM; IC50 (Aurora kinase A): 327 nM; IC50 [2]: 2060 nM; IC50 [3]: 269 nM; IC50 (Angiopoietin-1 receptor [4]): 2 nM; Ratio IC50 [5]: 21; Ratio IC50 [6]: 146; Ratio IC50 [7]: 120; residual activity [8]: 67%; residual activity (Angiopoietin-1 receptor [9]): 0%; residual activity [10]: 25%; residual activity (Aurora kinase B [11]): 4%

With `CNc1nccc(-c2cccnc2Oc2ccc(Nc3nc4ccccc4[nH]3)c3ccccc23)n1` as the compound, how does the IC50 (Aurora kinase B [1]) read?
The IC50 was 9 nM.

And the IC50 [3]?
Its IC50 is 292 nM.

And the Ratio IC50 [5]?
The Ratio IC50 was 7.

And the Ratio IC50 [6]?
The Ratio IC50 was 14.

What about the Ratio IC50 [12] of the same compound?
Its Ratio IC50 is 998.

What about the Ratio IC50 [7] of the same compound?
Its Ratio IC50 is 211.

What about the residual activity [8] of the same compound?
Its residual activity is 58%.

What about the residual activity (Angiopoietin-1 receptor [9]) of the same compound?
The residual activity was 0%.

What about the residual activity [10] of the same compound?
The residual activity was 2%.

What about the residual activity (Aurora kinase B [11]) of the same compound?
Its residual activity is 1%.

With `CNc1nccc(-c2cccnc2Oc2ccc(Nc3nc4ccncc4[nH]3)c3ccccc23)n1` as the compound, how does the IC50 (Aurora kinase B [1]) read?
The IC50 was 454 nM.

What about the IC50 (Aurora kinase A) of the same compound?
Its IC50 is 1070 nM.

And the IC50 [2]?
The IC50 was 6360 nM.

What about the IC50 [3] of the same compound?
The IC50 was 4800 nM.

And the IC50 (Angiopoietin-1 receptor [4])?
Its IC50 is 86 nM.

And the Ratio IC50 [5]?
The Ratio IC50 was 5.

What about the Ratio IC50 [6] of the same compound?
Its Ratio IC50 is 12.

What about the Ratio IC50 [12] of the same compound?
The Ratio IC50 was 74.

What about the Ratio IC50 [7] of the same compound?
Its Ratio IC50 is 56.

And the residual activity [8]?
The residual activity was 86%.

And the residual activity (Angiopoietin-1 receptor [9])?
Its residual activity is 8%.

And the residual activity [10]?
The residual activity was 52%.

And the residual activity (Aurora kinase B [11])?
The residual activity was 31%.

Which Ratio IC50 [5] does the source give for `CNc1nccc(-c2cccnc2Oc2ccc(Nc3nc4ccc(C(F)(F)F)cc4[nH]3)c3ccccc23)n1` here?
Its Ratio IC50 is 2.

What about the Ratio IC50 [6] of the same compound?
The Ratio IC50 was 1.

What about the Ratio IC50 [12] of the same compound?
Its Ratio IC50 is 3.

And the Ratio IC50 [7]?
Its Ratio IC50 is 5.

What about the residual activity [8] of the same compound?
The residual activity was 6%.

What about the residual activity (Angiopoietin-1 receptor [9]) of the same compound?
Its residual activity is 3%.

And the residual activity [10]?
Its residual activity is 2%.

And the residual activity (Aurora kinase B [11])?
Its residual activity is 5%.

With `CNc1nccc(-c2cccnc2Oc2ccc(Nc3nc4ccccc4s3)c3ccccc23)n1` as the compound, how does the IC50 (Aurora kinase B [1]) read?
Its IC50 is 143 nM.

And the IC50 (Aurora kinase A)?
Its IC50 is 380 nM.

What about the IC50 [3] of the same compound?
Its IC50 is 80 nM.

What about the Ratio IC50 [5] of the same compound?
Its Ratio IC50 is 3.

And the Ratio IC50 [6]?
Its Ratio IC50 is 9.

And the Ratio IC50 [12]?
Its Ratio IC50 is 2.

What about the Ratio IC50 [7] of the same compound?
The Ratio IC50 was 2.

What about the residual activity [8] of the same compound?
Its residual activity is 8%.

What about the residual activity (Angiopoietin-1 receptor [9]) of the same compound?
Its residual activity is 4%.

And the residual activity [10]?
The residual activity was 28%.

What about the residual activity (Aurora kinase B [11]) of the same compound?
Its residual activity is 13%.

With `CNc1nccc(-c2cccnc2Oc2ccc(NC(=O)NC(C)(C)C)c3ccccc23)n1` as the compound, how does the IC50 (Aurora kinase B [1]) read?
The IC50 was 55 nM.

What about the IC50 (Aurora kinase A) of the same compound?
Its IC50 is 225 nM.

What about the IC50 [2] of the same compound?
Its IC50 is 2220 nM.

What about the IC50 [3] of the same compound?
The IC50 was 4090 nM.

And the IC50 (Angiopoietin-1 receptor [4])?
Its IC50 is 215 nM.

And the Ratio IC50 [5]?
Its Ratio IC50 is 0.1.

What about the Ratio IC50 [6] of the same compound?
Its Ratio IC50 is 1.

What about the Ratio IC50 [12] of the same compound?
Its Ratio IC50 is 10.

What about the Ratio IC50 [7] of the same compound?
The Ratio IC50 was 19.

And the residual activity [8]?
The residual activity was 69%.

What about the residual activity (Angiopoietin-1 receptor [9]) of the same compound?
Its residual activity is 18%.

And the residual activity [10]?
The residual activity was 18%.

And the residual activity (Aurora kinase B [11])?
Its residual activity is 5%.

What does the source list for `CN(C)CC(C)(C)CNc1nccc(-c2cccnc2Oc2ccc(Nc3nc4ccccc4[nH]3)c3ccccc23)n1`?
IC50 (Aurora kinase B [1]): 759 nM; IC50 (Aurora kinase A): 1660 nM; IC50 [2]: 10000 nM; IC50 [3]: 10000 nM; IC50 (Angiopoietin-1 receptor [4]): 82 nM; Ratio IC50 [5]: 9; Ratio IC50 [6]: 20; Ratio IC50 [12]: 123; Ratio IC50 [7]: 123; residual activity [8]: 91%; residual activity (Angiopoietin-1 receptor [9]): 8%; residual activity [10]: 62%; residual activity (Aurora kinase B [11]): 43%

With `CCN1CCC(CNc2nccc(-c3cccnc3Oc3ccc(Nc4nc5ccccc5[nH]4)c4ccccc34)n2)CC1` as the compound, how does the IC50 (Aurora kinase B [1]) read?
Its IC50 is 100 nM.

What about the IC50 (Aurora kinase A) of the same compound?
Its IC50 is 332 nM.

And the IC50 [2]?
Its IC50 is 1750 nM.

And the IC50 [3]?
The IC50 was 387 nM.

And the IC50 (Angiopoietin-1 receptor [4])?
The IC50 was 1 nM.

And the Ratio IC50 [5]?
Its Ratio IC50 is 100.

What about the Ratio IC50 [6] of the same compound?
The Ratio IC50 was 332.

What about the Ratio IC50 [12] of the same compound?
The Ratio IC50 was 1750.

And the Ratio IC50 [7]?
The Ratio IC50 was 387.

And the residual activity [8]?
The residual activity was 64%.

What about the residual activity (Angiopoietin-1 receptor [9]) of the same compound?
The residual activity was 0%.

What about the residual activity [10] of the same compound?
Its residual activity is 25%.

And the residual activity (Aurora kinase B [11])?
The residual activity was 9%.

Which IC50 (Aurora kinase B [1]) does the source give for `CNc1nccc(-c2cccnc2Oc2ccc(Nc3nc4cc(C(F)(F)F)ccc4[nH]3)c3ccccc23)n1` here?
Its IC50 is 56 nM.

What about the IC50 (Aurora kinase A) of the same compound?
Its IC50 is 16 nM.

And the IC50 [3]?
The IC50 was 132 nM.

What does the source list for `CNc1nccc(-c2cccnc2Oc2ccc(Nc3nc4ccccc4o3)c3ccccc23)n1`?
IC50 (Aurora kinase B [1]): 134 nM; IC50 (Aurora kinase A): 141 nM; IC50 [3]: 25 nM; Ratio IC50 [5]: 3; Ratio IC50 [6]: 9; Ratio IC50 [12]: 2; Ratio IC50 [7]: 2; residual activity [8]: 3%; residual activity (Angiopoietin-1 receptor [9]): 2%; residual activity [10]: 12%; residual activity (Aurora kinase B [11]): 12%

For `CNc1nccc(-c2cccnc2Oc2c(C)cc(Nc3nc4ccccc4[nH]3)c3ccccc23)n1`, which IC50 (Aurora kinase B [1]) is on record?
Its IC50 is 77 nM.

What about the IC50 (Aurora kinase A) of the same compound?
Its IC50 is 29 nM.

What about the IC50 [2] of the same compound?
Its IC50 is 10000 nM.

And the IC50 [3]?
Its IC50 is 405 nM.

And the residual activity [8]?
Its residual activity is 91%.

What about the residual activity (Angiopoietin-1 receptor [9]) of the same compound?
The residual activity was 0%.

What about the residual activity [10] of the same compound?
The residual activity was 3%.

What about the residual activity (Aurora kinase B [11]) of the same compound?
The residual activity was 7%.

Which IC50 (Aurora kinase B [1]) does the source give for `CNc1nccc(-c2cccnc2Oc2ccc(NC(=O)Nc3ccccc3)c3ccccc23)n1` here?
The IC50 was 23 nM.

And the IC50 (Aurora kinase A)?
The IC50 was 52 nM.

And the IC50 [3]?
Its IC50 is 48 nM.

And the Ratio IC50 [5]?
The Ratio IC50 was 4.

What about the Ratio IC50 [6] of the same compound?
Its Ratio IC50 is 10.

What about the Ratio IC50 [12] of the same compound?
Its Ratio IC50 is 7.

And the Ratio IC50 [7]?
The Ratio IC50 was 9.

And the residual activity [8]?
The residual activity was 4%.

And the residual activity (Angiopoietin-1 receptor [9])?
The residual activity was 1%.

What about the residual activity [10] of the same compound?
The residual activity was 5%.

And the residual activity (Aurora kinase B [11])?
Its residual activity is 2%.
